“Also recorded” adds a separate entry of the source. Where two headings read alike, the source gives them in different places.
How the values were obtained:
[1] = tested on: translation in rabbit reticulocyte lysate (RRL); assay: In vitro translation assay in rabbit reticulocyte lysate (RRL); settings: for inhibition of translation of luciferase RNA in RRL: luminescence assay, FIG. 2A/2B
[2] = molecular target: T1, ProRS (amino acids 998-1513 of human EPRS) (Homo sapiens, UniProt P07814); assay: [3H]-HFol binding to immobilized ProRS; settings: for inhibition of [3H]-HFol binding to ProRS: FIG. 4A
T1 construct: Purified 6-his tagged ProRS (amino acids 998-1513 of human EPRS) was immobilized on N-NTA beads; made in house; host or cells: E. coli BL21(DE3), plasmid pKS509
T1 sequence (P07814 998-1512 limits assumed): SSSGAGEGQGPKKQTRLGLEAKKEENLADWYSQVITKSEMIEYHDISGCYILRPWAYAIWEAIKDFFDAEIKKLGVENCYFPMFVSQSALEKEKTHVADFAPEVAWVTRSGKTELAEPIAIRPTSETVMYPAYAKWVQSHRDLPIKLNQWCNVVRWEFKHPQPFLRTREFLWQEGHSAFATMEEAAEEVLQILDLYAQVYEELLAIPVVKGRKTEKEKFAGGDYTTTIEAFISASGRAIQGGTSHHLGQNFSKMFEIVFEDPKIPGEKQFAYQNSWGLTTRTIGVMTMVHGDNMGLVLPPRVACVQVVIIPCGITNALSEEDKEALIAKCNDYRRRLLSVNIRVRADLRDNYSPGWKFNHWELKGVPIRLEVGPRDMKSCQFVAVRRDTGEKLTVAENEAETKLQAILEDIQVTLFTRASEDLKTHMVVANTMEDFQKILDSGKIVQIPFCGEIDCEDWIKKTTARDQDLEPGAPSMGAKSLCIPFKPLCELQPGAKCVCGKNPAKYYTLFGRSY
Method: B) [^3H]-HFol binding was assayed as described above in the presence of indicated concentrations of proline. […] IMR90 lung fibroblasts were treated with a siRNAs directed against EPRS (Dharmacon) or a control siRNA mixture for 48 hours, and then treated with HF for 2 hours (pGCN2) and examined for EPRS protein levels, GCN2 total protein and phospho-GCN2 by Western blot. D) EPRS depleted IMR90 cells were compared to control cells with respect to HF induction of the AAR marker CHOP by Q-PCR. Equal concentrations of total cellular protein were loaded in each Western blot lane. CHOP expression was standardized to expression of phosphoglycerate kinase 1 (PGK1) and glyceraldehyde-3-phosphate-dehydrogenase (GAPDH). Data shown are representative of three separate experiments.
Prolyl sulfamoyl adenosine (ProSAd) or alanyl sulfamoyl adenosine (AlaSAd), analogs of the corresponding aminoacyl adenylate, were coincubated with [^3H]-HFol as in FIG. 2. […] Binding of [^3H]-HFol was assayed as in FIG. 3, except that the nucleotide type and concentration was varied as indicated.
To examine HF binding to ProRS, ^3H HFol was synthesized by American Radiochemicals (St. Louis) by reduction of MAZ1310 (3) at the ketone with NaB^3H4, followed by removal of the Boc protecting group with 10% trifluoroacetic acid in dichloromethane, and HPLC purification of the ^3H HFol. 100 nM ^3H HFol was incubated with ProRS immobilized on Ni-NTA beads (Pierce) in 50 mM Tris pH 7.5, 5 mM MgCl2, 20 mM Imidazole, 1 mM DTT, 10% glycerol, and nucleotides, proline, or HF derivatives at room temperature for 10 minutes as indicated. After incubation, beads were washed twice with ice-cold wash buffer (50 mM Tris 7.5; 20 mM Imidazole; 1 mM DTT, 20% glycerol). ^3H HFol bound after washing was measured by liquid scintillation counting. Ni-NTA beads incubated with E. coli extracts lacking tagged ProRS were used as a background reference in all experiments.

P. falciparum (Dd2) = assay: In vitro P. falciparum viability assay with excess proline; assay type: cell-based, Plasmodium falciparum; settings: Dd2 strain in red blood cells, relative to unmodified RPMI, FIG. 23
Method: The activity of halofuginone and amodiaquine as inhibitors of P. falciparum growth was tested in erythrocytes in RPMI with or without excess amino acids as indicated, and IC50 values were normalized to IC50 values obtained under standard conditions using unmodified RPMI (numbers in bold). The absolute IC50 values for halofuginone and amodiaquine for RPMI are reported in parentheses. Fold amino acid indicated (e.g., “5×”) is relative to the concentration of the respective amino acid in RPMI. Fold concentration of D-Pro and L-Orn are relative to L-Pro.
In vitro potency against P. falciparum (DD2) was assessed using a modified version of the method of Plouffe and coworkers (Plouffe et al. Proc. Natl. Acad. Sci. USA 105:9059-64 (2008)). Parasites were cultured in the presence of drug in RPMI (Sigma) containing 4.16 mg/ml Albumax in a total volume of 50 μl at a 2.5% hematocrit and an initial parasitemia of 0.3% in black Greiner GNF clear-bottom plates. Cultures were incubated 72 hr at 37° C. under […], 4% CO2 and 3% O2. At the end of the incubation, SYBR green was added to a dilution of 1:10,000 and plates were stored overnight (or until ready to be read) at −80° C. Just before reading, plates were centrifuged at 700 rpm and fluorescence was read using 480 nm excitation and 530 nm emission frequencies. Compound concentrations that inhibit parasite replication reduce the fluorescence intensity of SYBR green bound to parasite DNA.

[3] = molecular target: T2, prolyl tRNA synthetase domain of human EPRS (ProRS) (Homo sapiens, UniProt P07814)
T2 sequence (P07814 998-1512 limits assumed): T1 sequence (P07814 998-1512 limits assumed)
Method: Activity of the Prolyl tRNA synthetase domain of EPRS (ProRS) was measured as ^3H Pro incorporation into the charged tRNA pool. […] Purified enzyme was visualized as a single band by Laemmli gel electrophoresis/Coomassie staining.
Purified enzyme was visualized as a single band by Laemmli gel electrophoresis/Coomassie staining. […] In preliminary experiments, the assay was established to be linear over the time (6 min) and conditions used (30 degrees, 2 mM ATP, 1 μg/μl total tRNA purified from rabbit liver).
For the rapid, quantitative isolation of aminoacylated tRNA^pro from synthetase reaction mixtures, reactions were stopped with 100 μl of ice cold 20 mM MOPS pH6.2, 200 mM NaCl, 10 mM EDTA, 30% Glycerol and placed on ice. Samples were added to 15 μl of packed Mono Q HP beads (GE Healthcare) equilibrated in the same buffer. Samples were incubated with beads on ice for 10 min, beads were pelleted by 5 sec centrifugation in a tabletop microfuge and washed 3× 1 ml of wash buffer (20 mM MOPS pH6.2, 50 mM NaCl), and recovered pellets counted in a liquid scintillation counter. Background binding of ^3H Pro to beads (using reaction mix with either no enzyme added or no tRNA added) was negligible (20-40 cpm).

[4] = tested on: primary human prostate stromal (hPrSc) cells, col1a1; assay: Type I collagen (col1a1) mRNA in primary human prostate stromal cells; assay type: cell-based; settings: treated twice for 48 hours, FIG. 27
Method: (§1) Primary human prostate stromal (hPrSc) cells were left in low-serum media (0.2%) for 24 hours, and treated consecutively twice for 48 hours, halofuginone (HF) or halofuginol (HFol) at the concentrations indicated. Relative mRNA levels of the myofibroblastic markeralpha 1 collagen type 1 (col1a1) was measured by quantitative real-time PCR using glyceraldehyde-3-phosphate dehydrogenase (GAPDH) as internal control.

[5] = tested on: primary human prostate stromal (hPrSc) cells, s100a4; assay: S100A4 mRNA in primary human prostate stromal cells; assay type: cell-based; settings: with or without TGF 10 ng/ml, FIG. 28
Method: as §1, with “48 hours with or without tumor-growth factor beta (TGF; 10 ng/ml),” for “48 hours,”, “the fibrosis/tissue invasion marker s100a4” for “the myofibroblastic markeralpha 1 collagen type 1 (col1a1)”

[6] = tested on: Th17 cell differentiation (primary murine CD4+ CD25- T cells); assay: Th17 differentiation of T cells; assay type: cell-based, mouse; settings: 6 nM (3 ng/mL) borrelidin, FIG. 19
Method: A) Primary murine CD4^+ CD25^− T cells were activated through the T-cell receptor in Th17 polarizing conditions (Sundrud et al. Science 324:1334-8 (2009)) in the presence of either 10 nM MAZ1310 or HF and the following amino acid supplements: 10× concentration of essential (EAA) or non-essential (NEAA) amino acids mixtures (Biowhittaker or Invitrogen, respectively), or 10× concentrations (1 mM) of indicated individual amino acids. Data are presented as mean percentage of Th17 (IL-17+ IFNg−) cells +/−SD from triplicate wells. B) Th17 differentiation was assayed as described above, in the absence or presence of HF or borrelidin, with or without 1 mM threonine or proline supplementation. C) MEFs were treated with or without HF (50 nM) and/or proline (2 mM) for 4 hours (CHOP, S100A4) or 24 hours (ColIA1, Col1A2). mRNA expression was normalized to expression of TBP and is shown relative to untreated control. […] Confidence intervals (p-value) for the effect of HF alone versus HF+Pro were determined using a two-tailed Student's t test. […] D) Cells were pre-incubated for 24 hours with HF and proline as indicated, and secretion of Type I procollagen was measured after 24 hours in conditioned medium of cells plated by Western blot and quantitated using Image J software (top panel). Total protein synthesis was measured as TCA-precipitable ^35S in a scintillation counter (bottom panel). […]

[7] = inhibitor 1 μM, anti-myc Western blot, FIG. 2C

For O=C(C[C@@H]1NCCC[C@H]1O)Cn1cnc2cc(Br)c(Cl)cc2c1=O (single isomer, unassigned) [2S,3R isomer of HF], the “inhibition of translation of luciferase RNA in RRL” value (“inhibition of translation … in RRL” for short) [1] was “no activity”.
For C[C@H](N)C(=O)NS(=O)(=O)OC[C@H]1O[C@@H](n2cnc3c(N)ncnc32)[C@H](O)[C@@H]1O [AlaSAd, alanyl sulfamoyl adenosine], the “inhibition of [3H]-HFol binding to ProRS” value ([2]; 50 nM competitor) was “partially inhibited”.
With O=C(C[C@H]1NCCC[C@@H]1O)Cn1cnc2ccccc2c1=O [FF, febrifugine] the “fold increase of effective IC50 on addition of 5× proline” value (P. falciparum (Dd2)) was roughly 5 fold, the “translation of Nopropep (proline-free polypeptide)” value [1, 7] was “no effect” and the “translation of Propep (proline dipeptide containing polypeptide)” value [1, 7] was “prevent translation”. For the same molecule, the “inhibition of translation … in RRL” value [1] was “inhibited”.
In the case of O=c1c2cc(Cl)c(Br)cc2ncn1C[C@@H](O)C[C@H]1NCCC[C@@H]1O [HFolA, halofuginol], the “inhibition of ProRS activity” value ([3]; 3H Pro incorporation into tRNA) is reported as “active; also recorded: inhibits; also recorded: potent inhibitor”.
For O=c1c2cc(Cl)c(Br)cc2ncn1C[C@H](O)C[C@H]1NCCC[C@@H]1O [HFolA, halofuginol], the “Type 1 collagen expression in fibroblasts in culture” value [4] was “inhibit”, the “expression of the activated fibroblast marker S100A4” value [5] was “inhibit” and the “inhibition of ProRS (EPRS) activity” value ([3]; 100 μM Pro, FIG. 13) was “inhibits; also recorded: potency similar to the parent compound”.
CC(C)(C)OC(=O)N1CCC[C@H](O)[C@H]1CC(=O)Cn1cnc2cc(Br)c(Cl)cc2c1=O [MAZ1310] was tested, and the “inhibition of ProRS activity” value ([3]; 14C Proline used as trace label, FIG. 9) was “does not block; also recorded: no inhibitory effect” and the “inhibition of translation … in RRL” value [1] was “no activity”.
With Nc1ncnc2c1ncn2[C@@H]1O[C@H](COS(=O)(=O)NC(=O)[C@@H]2CCCN2)[C@@H](O)[C@H]1O [ProSAd, 5-O—[N-(L-prolyl)-sulfamoyl]adenosine] the “inhibition of [3H]-HFol binding to ProRS” value ([2]; 10 nM competitor) was “inhibited”.
In the case of [3H][C@@](O)(C[C@H]1NCCC[C@@H]1O)Cn1cnc2cc(Br)c(Cl)cc2c1=O [[^3H]-HFol], the “direct binding to immobilized ProRS” value ([2]; 5 mM MgCl2, 2 mM ATP, 10 min RT) is reported as “bound directly”.
With CCN(CC)Cc1cc(Nc2ccnc3cc(Cl)ccc23)ccc1O [amodiaquine] the “fold increase of effective IC50 on addition of 5× proline” value (P. falciparum (Dd2)) was “did not affect”.
For C[C@@H]1C[C@H](C)C[C@H](C)[C@@H](O)CC(=O)O[C@H]([C@@H]2CCC[C@H]2C(=O)O)C/C=C/C=C(/C#N)[C@H](O)[C@@H](C)C1 [borrelidin], the “inhibition of Th17 cell differentiation” value [6] was “selectively inhibits” and the “inhibition of Th17 cell differentiation” value ([6]; listed as Borrelidin) was “inhibited”.
